# According to PubChem BioAssay (NCI):
#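 Five compound concentrations were applied to cells in 96-well plates for 48 hours; endpoints were derived by simple linear interpolation of the resulting dose-response curve. The concentration for full growth arrest is given as TGI.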
# Tests used:
# Test in all cases: growth of human tumour cells (NCI), 48 h
# [1] = system: A498 renal
# [2] = system: A549 NSCLC
# [3] = system: CAKI-1 renal
# [4] = system: HCC-2998 colon
# [5] = system: HL-60(TB) leukemia
# [6] = system: HOP-62 NSCLC
# [7] = system: HS 578T breast
# [8] = system: IGROV1 ovarian
# [9] = system: MCF7 breast
# [10] = system: NCI/ADR-RES ovarian
# [11] = system: SNB-75 CNS
# [12] = system: SW-620 colon
# [13] = system: UACC-257 melanoma
# [14] = system: DLD-1 colon
# [15] = system: HCT-116 colon
# [16] = system: HOP-18 NSCLC
# [17] = system: LXFL 529 NSCLC
# [18] = system: MOLT-4 leukemia
# [19] = system: SNB-78 CNS
# [20] = system: XF 498 CNS
SMILES,TGI [1] [µM],TGI [2] [µM],TGI [3] [µM],TGI [4] [µM],TGI [5] [µM],TGI [6] [µM],TGI [7] [µM],TGI [8] [µM],TGI [9] [µM],TGI [10] [µM],TGI [11] [µM],TGI [12] [µM],TGI [13] [µM],TGI [14] [µM],TGI [15] [µM],TGI [16] [µM],TGI [17] [µM],TGI [18] [µM],TGI [19] [µM],TGI [20] [µM]
O=C(NCCN(CCNC(=O)c1cccc(=O)n1O)CCNC(=O)c1cccc(=O)n1O)c1cccc(=O)n1O,> 100,> 100,> 100,> 100,> 100,> 100,> 100,> 100,> 100,> 100,> 100,> 100,> 100,,,,,,,
N#CCCN(CCC#N)c1ccc(/C=C(/NC(=O)Nc2ccccc2Cl)NC(=O)c2cc([N+](=O)[O-])ccc2Cl)cc1,,> 100,> 100,> 100,,> 100,,> 100,,,,> 100,,> 100,> 100,> 100,> 100,> 100,> 100,> 100
COc1ccc(N[C@@H]2c3cc4c(cc3C(c3cc(OC)c(O)c(OC)c3)[C@H]3C(=O)OCC32)OCO4)cc1OC (some centres not stated),> 100,,,,,,,> 75.7,> 100,> 100,,> 100,38.5,> 25.7,> 42.7,> 64.2,,,,> 61.8
CCCCCC(/C=C/c1ncccc1OCCCCCC(=O)O)=N\NC1=NCCN1,,> 100,> 100,> 100,> 100,> 100,,> 100,,,> 100,> 100,,,> 100,,> 100,> 100,,54.8
CN(C(=O)c1ccccc1)c1ccc2c(c1)C(=O)c1ccccc1C2=O,,,> 100,> 100,,> 100,,> 100,,,,> 100,> 100,,> 100,,> 100,> 100,,> 100
S=C1Cc2c(-c3ccccc3)cc(-c3ccc(Cl)cc3)nc2-c2ccccc2N1,4.27,> 33.9,3.33,> 36.8,> 100,3.16,4.23,4.36,> 72.6,> 27.3,3.14,11.6,22.2,,13.7,,,> 100,,
O=S(=O)(CF)OCCCCOS(=O)(=O)CF,> 100,,> 100,,> 100,,,> 100,,,> 100,> 100,,,> 100,> 100,> 100,> 100,> 100,
C[Si](C)(C)/C=C/CN1C(=O)CCC1=O,> 100,> 100,,> 100,> 100,,,> 100,,,> 100,> 100,,> 100,> 100,> 100,> 100,,> 100,> 100
